Assay results from ChEMBL document CHEMBL4043063, “Anti-tuberculosis activity and structure-activity relationships of oxygenated tricyclic carbazole alkaloids and synthetic derivatives” (Bioorg Med Chem, 2017).
Values after ≈ are worked out from the molar mass of the structure shown.

What was measured:
[1] = test system: Mycobacterium tuberculosis; assay: Antitubercular activity against Mycobacterium tuberculosis H37Rv by microplate alamar blue assay; assay type: functional
[2] = test system: Vero; assay: Cytotoxicity against African green monkey Vero cells assessed as reduction in cell viability after 72 hrs by tetrazolium dye assay; assay type: cell-based; conditions: Chlorocebus sabaeus
[3] = Selectivity index, ratio of IC50 for African green monkey Vero cells to MIC90 for Mycobacterium tuberculosis H37Rv; assay type: toxicity; conditions: read-out: Selectivity Index

Structure (SMILES)	MIC90 [1] [µM]	IC50 [2] [µM]	selectivity ratio [3]
COC(=O)c1cc2c(cc1OC)[nH]c1ccccc12 [CLAUSINE L]	> 50	–	–
COC(=O)c1cc2c([nH]c3ccccc32)c(-c2cn(S(=O)(=O)c3ccccc3)c3ccccc23)c1O	2.9 (≈ 1.44 µg/mL)	> 50	> 17.2
COC(=O)c1cc2c(cc1O)[nH]c1cc(OC)ccc12	47.8 (≈ 13 µg/mL)	–	–
NNC(=O)c1ccncc1 [ISONIAZID]	0.24 (≈ 0.0329 µg/mL)	> 50	> 208
COC(=O)c1cc2c([nH]c3ccccc32)c(I)c1O	24.6 (≈ 9.03 µg/mL)	–	–
COc1c(C)c(C[C@@H](C)O)c2[nH]c3ccc(CC=C(C)C)cc3c2c1O [(R)-(-)-NEOCARAZOSTATIN B]	34.5 (≈ 12.2 µg/mL)	–	–
CO[C@H]1/C=C/O[C@@]2(C)Oc3c(C)c(O)c4c(O)c(c(/C=N/N5CCN(C)CC5)c(O)c4c3C2=O)NC(=O)/C(C)=C\C=C\[C@H](C)[C@H](O)[C@@H](C)[C@@H](O)[C@@H](C)[C@H](OC(C)=O)[C@@H]1C [RIFAMPIN]	0.02 (≈ 0.0165 µg/mL)	> 50	> 2500
CC(C)=CCC/C(C)=C/Cc1c(O)ccc2c1[nH]c1c(OS(=O)(=O)c3ccc(C)cc3)cc(C)cc12	20.5 (≈ 10.3 µg/mL)	–	–
Cc1ccc(S(=O)(=O)Oc2cc(C)cc3c2[nH]c2cc(O)ccc23)cc1	19.7 (≈ 7.24 µg/mL)	–	–
CC(C)=CCc1c(O)c(C)cc2c1[nH]c1ccccc12	11.1 (≈ 2.95 µg/mL)	> 50	> 4.5
COc1cccc2c1[nH]c1cc(O)c(C=O)cc12	29.3 (≈ 7.07 µg/mL)	–	–
COc1ccc2[nH]c3c(O)cc(C=O)cc3c2c1	6.9 (≈ 1.66 µg/mL)	> 50	> 7.2
COc1ccc2c([nH]c3cc(O)c(C)cc32)c1CC=C(C)C	11.9 (≈ 3.52 µg/mL)	> 50	> 4.2
COC(=O)c1cc2c(cc1O)[nH]c1ccccc12 [MUKONIDINE]	23.3 (≈ 5.62 µg/mL)	–	–
CC(C)=CCc1c(O)c(C=O)cc2c1[nH]c1ccccc12 [HEPTAPHYLLINE]	> 50	–	–
C=CC(C)(C)c1ccc2[nH]c3ccccc3c2c1	11 (≈ 2.59 µg/mL)	> 50	> 4.5
COc1cccc2[nH]c3cc(OCc4ccccc4)c(C)cc3c12	9.3 (≈ 2.95 µg/mL)	> 50	> 5.4
CC(C)=CCc1c(O)ccc2c1[nH]c1cc(O)c(C)cc12	29.4 (≈ 8.27 µg/mL)	–	–
CC(C)=CCc1c(O)ccc2c1[nH]c1c(OS(=O)(=O)c3ccc(C)cc3)cc(C)cc12	19.4 (≈ 8.45 µg/mL)	–	–
COc1ccc2[nH]c3c(OC)cc(C)cc3c2c1	45.1 (≈ 10.9 µg/mL)	–	–
COc1cccc2c1[nH]c1cc(O)c(C)cc12	> 50	–	–
C#CC(C)(C)Oc1ccc2c(c1)[nH]c1c(OS(=O)(=O)c3ccc(C)cc3)cc(C)cc12	20.8 (≈ 9.02 µg/mL)	–	–
COC(=O)c1cc2c(cc1O)[nH]c1ccc(O)cc12	29.1 (≈ 7.49 µg/mL)	–	–
COc1ccc2c([nH]c3cc(O)c(C)cc32)c1C=O	> 50	–	–
COC(=O)c1cc(OC)c2[nH]c3ccc(OC)cc3c2c1	46.7 (≈ 13.3 µg/mL)	–	–
COc1ccc2c(c1)[nH]c1cc(O)c(C=O)cc12	24.3 (≈ 5.86 µg/mL)	–	–

Structure (SMILES)	MIC90 [1] [µM]	IC50 [2] [µM]	selectivity ratio [3]
COc1ccc2[nH]c3cc(OC)c(C=O)cc3c2c1 [GLYCOZOLIDAL]	> 50	–	–
COC(=O)c1cc2c(cc1OC)[nH]c1ccc(OC)cc12	24.4 (≈ 6.96 µg/mL)	–	–
COc1cc2[nH]c3ccccc3c2cc1C=O [GLYCOSININE]	39.6 (≈ 8.92 µg/mL)	–	–
COc1ccc2c([nH]c3cc(O)c(C=O)cc32)c1C=O	2.8 (≈ 0.754 µg/mL)	47.1	16.8
COc1ccc2c(c1)[nH]c1cc(O)c(C)cc12	> 50	–	–
COc1cc2[nH]c3cc(O)ccc3c2cc1C=O	36.7 (≈ 8.85 µg/mL)	–	–
COc1ccc2[nH]c3cc(O)c(C)cc3c2c1	1.5 (≈ 0.341 µg/mL)	> 50	> 33
COc1ccc2[nH]c3c(OC)cc(C=O)cc3c2c1	> 50	–	–
O=C(O)c1cc2c(cc1O)[nH]c1ccc(O)cc12	> 50	–	–
CC(C)=CCc1ccc2[nH]c3ccccc3c2c1	22.6 (≈ 5.32 µg/mL)	–	–
COc1ccc2c([nH]c3c(OC)cc(C)cc32)c1OC	46.9 (≈ 12.7 µg/mL)	–	–
CCCCCCCc1c(C)c(OC)c(OC)c2c1[nH]c1ccccc12	6.2 (≈ 2.1 µg/mL)	> 50	> 8.1
O=Cc1cc2c(cc1O)[nH]c1c(O)cccc12	3.7 (≈ 0.841 µg/mL)	> 50	> 13
O=C(O)c1cc2c([nH]c3ccccc32)c(-c2c[nH]c3ccccc23)c1O	> 50	–	–
COc1cc2[nH]c3c(C=O)c(OC)ccc3c2cc1C	> 50	–	–
COC1=C(C)C(=O)c2[nH]c3ccccc3c2C1=O [3-METHOXY-2-METHYLCARBAZOLE-1,4-QUINONE]	4 (≈ 0.965 µg/mL)	> 50	> 12.5
CC(C)=CC(=O)Oc1ccc2c(c1)[nH]c1c(OS(=O)(=O)c3ccc(C)cc3)cc(C)cc12	6.2 (≈ 2.79 µg/mL)	> 50	> 8.1
CC(C)=CCC/C(C)=C/Cc1c(O)c(C=O)cc2c1[nH]c1ccccc12	24.1 (≈ 8.37 µg/mL)	–	–
Cc1cc2c(cc1O)[nH]c1ccccc12	41.5 (≈ 8.19 µg/mL)	–	–
COc1ccc2c(c1)[nH]c1c(Cc3ccccc3)c(O)c(C=O)cc12	14.4 (≈ 4.77 µg/mL)	74.1	5.1
COc1ccc2c(c1)[nH]c1c(CC=C(C)C)c(O)c(C=O)cc12	20.6 (≈ 6.37 µg/mL)	–	–
COc1cc2[nH]c3ccccc3c2cc1C(=O)O	> 50	–	–
COc1ccc2[nH]c3cc(OC)c(C)cc3c2c1 [GLYCOZOLIDINE]	> 50	–	–
Cc1cc2c(cc1OCc1ccccc1)[nH]c1ccccc12	> 50	–	–
COc1ccc2c([nH]c3c(O)cc(C)cc32)c1CC=C(C)C	23.1 (≈ 6.82 µg/mL)	–	–
Cc1cc2c(cc1OCc1ccccc1)[nH]c1c(O)cccc12	11.8 (≈ 3.58 µg/mL)	33.7	2.9
